Measured values from ChEMBL document CHEMBL3352110, “Design, synthesis and in vitro evaluation of novel dehydroabietic acid derivatives containing a dipeptide moiety as potential anticancer agents” (Eur J Med Chem, 2015).

Test system: NCI-H460
Assay: Cytotoxicity against human NCI-H460 cells after 48 hrs by MTT assay
Format: functional, cell-based
Conditions: NCI-H460, 48 h

Compound	IC50 [µM]
CC(C)c1ccc2c(c1)C(=O)C[C@H]1[C@](C)(C(=O)N[C@@H](Cc3ccccc3)C(=O)Nc3ccc(Cl)cc3)CCC[C@]21C	49.1
COc1ccc(NC(=O)[C@H](Cc2ccccc2)NC(=O)[C@]2(C)CCC[C@]3(C)c4ccc(C(C)C)cc4C(=O)C[C@@H]23)cc1	> 100
CC(C)c1ccc2c(c1)C(=O)C[C@H]1[C@](C)(C(=O)N[C@H](Cc3ccccc3)C(=O)Nc3ccccc3F)CCC[C@]21C	61.4
CC(C)c1ccc2c(c1)/C(=N\O)C[C@H]1[C@](C)(C(=O)N[C@@H](Cc3ccccc3)C(=O)Nc3ccc(Cl)cc3)CCC[C@]21C	102
COc1ccccc1NC(=O)[C@H](Cc1ccccc1)NC(=O)[C@]1(C)CCC[C@]2(C)c3ccc(C(C)C)cc3C(=O)C[C@@H]12	33.8
COc1ccc(NC(=O)[C@@H](Cc2ccccc2)NC(=O)[C@]2(C)CCC[C@]3(C)c4ccc(C(C)C)cc4/C(=N\O)C[C@@H]23)cc1	20.4
COc1cc(NC(=O)[C@@H](Cc2ccccc2)NC(=O)[C@]2(C)CCC[C@]3(C)c4ccc(C(C)C)cc4C(=O)C[C@@H]23)cc(OC)c1OC	27.9
CC(C)c1ccc2c(c1)C(=O)C[C@H]1[C@](C)(C(=O)N[C@@H](Cc3ccccc3)C(=O)Nc3ccccc3F)CCC[C@]21C	57.1
CC(C)c1ccc2c(c1)C(=O)C[C@H]1[C@](C)(C(=O)N[C@H](Cc3ccccc3)C(=O)Nc3ccc(F)cc3)CCC[C@]21C	34.3
COc1ccc(NC(=O)[C@@H](Cc2ccccc2)NC(=O)[C@]2(C)CCC[C@]3(C)c4ccc(C(C)C)cc4C(=O)C[C@@H]23)cc1	34.3
COc1cc(NC(=O)[C@@H](Cc2ccccc2)NC(=O)[C@]2(C)CCC[C@]3(C)c4ccc(C(C)C)cc4/C(=N\O)C[C@@H]23)cc(OC)c1OC	36.1
COc1cc(NC(=O)[C@H](Cc2ccccc2)NC(=O)[C@]2(C)CCC[C@]3(C)c4ccc(C(C)C)cc4C(=O)C[C@@H]23)cc(OC)c1OC	54.6
CC(C)c1ccc2c(c1)/C(=N\O)C[C@H]1[C@](C)(C(=O)N[C@H](Cc3ccccc3)C(=O)Nc3ccc(Cl)cc3)CCC[C@]21C	17.6
COc1ccccc1NC(=O)[C@@H](Cc1ccccc1)NC(=O)[C@]1(C)CCC[C@]2(C)c3ccc(C(C)C)cc3C(=O)C[C@@H]12	85.4

Test system: HeLa
Assay: Cytotoxicity against human HeLa cells after 48 hrs by MTT assay
Format: functional, cell-based
Conditions: not given

Compound	IC50 [µM]
O=c1[nH]cc(F)c(=O)[nH]1 [FLUOROURACIL]	36.5
CC(C)c1ccc2c(c1)C(=O)C[C@H]1[C@](C)(C(=O)N[C@@H](Cc3ccccc3)C(=O)Nc3ccc(Cl)cc3)CCC[C@]21C	36
COc1ccc(NC(=O)[C@H](Cc2ccccc2)NC(=O)[C@]2(C)CCC[C@]3(C)c4ccc(C(C)C)cc4C(=O)C[C@@H]23)cc1	52.3
CC(C)c1ccc2c(c1)C(=O)C[C@H]1[C@](C)(C(=O)N[C@H](Cc3ccccc3)C(=O)Nc3ccccc3F)CCC[C@]21C	25.9
CC(C)c1ccc2c(c1)/C(=N\O)C[C@H]1[C@](C)(C(=O)N[C@@H](Cc3ccccc3)C(=O)Nc3ccc(Cl)cc3)CCC[C@]21C	101
COc1ccccc1NC(=O)[C@H](Cc1ccccc1)NC(=O)[C@]1(C)CCC[C@]2(C)c3ccc(C(C)C)cc3C(=O)C[C@@H]12	14.7
COc1ccc(NC(=O)[C@@H](Cc2ccccc2)NC(=O)[C@]2(C)CCC[C@]3(C)c4ccc(C(C)C)cc4/C(=N\O)C[C@@H]23)cc1	17.3
COc1cc(NC(=O)[C@@H](Cc2ccccc2)NC(=O)[C@]2(C)CCC[C@]3(C)c4ccc(C(C)C)cc4C(=O)C[C@@H]23)cc(OC)c1OC	19.2
CC(C)c1ccc2c(c1)C(=O)C[C@H]1[C@](C)(C(=O)N[C@@H](Cc3ccccc3)C(=O)Nc3ccccc3F)CCC[C@]21C	18.9
CC(C)c1ccc2c(c1)C(=O)C[C@H]1[C@](C)(C(=O)N[C@H](Cc3ccccc3)C(=O)Nc3ccc(F)cc3)CCC[C@]21C	16.3
COc1ccc(NC(=O)[C@@H](Cc2ccccc2)NC(=O)[C@]2(C)CCC[C@]3(C)c4ccc(C(C)C)cc4C(=O)C[C@@H]23)cc1	16.3
COc1cc(NC(=O)[C@@H](Cc2ccccc2)NC(=O)[C@]2(C)CCC[C@]3(C)c4ccc(C(C)C)cc4/C(=N\O)C[C@@H]23)cc(OC)c1OC	32
COc1cc(NC(=O)[C@H](Cc2ccccc2)NC(=O)[C@]2(C)CCC[C@]3(C)c4ccc(C(C)C)cc4C(=O)C[C@@H]23)cc(OC)c1OC	49.6
CC(C)c1ccc2c(c1)/C(=N\O)C[C@H]1[C@](C)(C(=O)N[C@H](Cc3ccccc3)C(=O)Nc3ccc(Cl)cc3)CCC[C@]21C	20.2
COc1ccccc1NC(=O)[C@@H](Cc1ccccc1)NC(=O)[C@]1(C)CCC[C@]2(C)c3ccc(C(C)C)cc3C(=O)C[C@@H]12	40.7

Test system: MGC-803
Assay: Cytotoxicity against human MGC803 cells after 48 hrs by MTT assay
Format: functional, cell-based
Conditions: MGC-803, 48 h

Compound	IC50 [µM]
O=c1[nH]cc(F)c(=O)[nH]1 [FLUOROURACIL]	30.4
CC(C)c1ccc2c(c1)CC[C@H]1[C@](C)(C(=O)O)CCC[C@]21C [DEHYDROABIETIC ACID]	> 100
CC(C)c1ccc2c(c1)C(=O)C[C@H]1[C@](C)(C(=O)N[C@@H](Cc3ccccc3)C(=O)Nc3ccc(Cl)cc3)CCC[C@]21C	29
COc1ccc(NC(=O)[C@H](Cc2ccccc2)NC(=O)[C@]2(C)CCC[C@]3(C)c4ccc(C(C)C)cc4C(=O)C[C@@H]23)cc1	49
CC(C)c1ccc2c(c1)C(=O)C[C@H]1[C@](C)(C(=O)N[C@H](Cc3ccccc3)C(=O)Nc3ccccc3F)CCC[C@]21C	18.9
CC(C)c1ccc2c(c1)/C(=N\O)C[C@H]1[C@](C)(C(=O)N[C@@H](Cc3ccccc3)C(=O)Nc3ccc(Cl)cc3)CCC[C@]21C	25.8
COc1ccccc1NC(=O)[C@H](Cc1ccccc1)NC(=O)[C@]1(C)CCC[C@]2(C)c3ccc(C(C)C)cc3C(=O)C[C@@H]12	39.4
COc1ccc(NC(=O)[C@@H](Cc2ccccc2)NC(=O)[C@]2(C)CCC[C@]3(C)c4ccc(C(C)C)cc4/C(=N\O)C[C@@H]23)cc1	15
COc1cc(NC(=O)[C@@H](Cc2ccccc2)NC(=O)[C@]2(C)CCC[C@]3(C)c4ccc(C(C)C)cc4C(=O)C[C@@H]23)cc(OC)c1OC	26.4
CC(C)c1ccc2c(c1)C(=O)C[C@H]1[C@](C)(C(=O)N[C@@H](Cc3ccccc3)C(=O)Nc3ccccc3F)CCC[C@]21C	18.9
CC(C)c1ccc2c(c1)C(=O)C[C@H]1[C@](C)(C(=O)N[C@H](Cc3ccccc3)C(=O)Nc3ccc(F)cc3)CCC[C@]21C	39.6
COc1ccc(NC(=O)[C@@H](Cc2ccccc2)NC(=O)[C@]2(C)CCC[C@]3(C)c4ccc(C(C)C)cc4C(=O)C[C@@H]23)cc1	39.6
COc1cc(NC(=O)[C@@H](Cc2ccccc2)NC(=O)[C@]2(C)CCC[C@]3(C)c4ccc(C(C)C)cc4/C(=N\O)C[C@@H]23)cc(OC)c1OC	15.6
COc1cc(NC(=O)[C@H](Cc2ccccc2)NC(=O)[C@]2(C)CCC[C@]3(C)c4ccc(C(C)C)cc4C(=O)C[C@@H]23)cc(OC)c1OC	21.3
CC(C)c1ccc2c(c1)/C(=N\O)C[C@H]1[C@](C)(C(=O)N[C@H](Cc3ccccc3)C(=O)Nc3ccc(Cl)cc3)CCC[C@]21C	17.8
COc1ccccc1NC(=O)[C@@H](Cc1ccccc1)NC(=O)[C@]1(C)CCC[C@]2(C)c3ccc(C(C)C)cc3C(=O)C[C@@H]12	30.9

Test system: not listed separately
Assay: Cytotoxicity against human HL7702 cells after 48 hrs by MTT assay
Format: functional, cell-based
Conditions: L02, 48 h

Compound	IC50 [µM]
CC(C)c1ccc2c(c1)C(=O)C[C@H]1[C@](C)(C(=O)N[C@@H](Cc3ccccc3)C(=O)Nc3ccc(Cl)cc3)CCC[C@]21C	57.8
COc1ccc(NC(=O)[C@H](Cc2ccccc2)NC(=O)[C@]2(C)CCC[C@]3(C)c4ccc(C(C)C)cc4C(=O)C[C@@H]23)cc1	59.6
CC(C)c1ccc2c(c1)C(=O)C[C@H]1[C@](C)(C(=O)N[C@H](Cc3ccccc3)C(=O)Nc3ccccc3F)CCC[C@]21C	53.3
CC(C)c1ccc2c(c1)/C(=N\O)C[C@H]1[C@](C)(C(=O)N[C@@H](Cc3ccccc3)C(=O)Nc3ccc(Cl)cc3)CCC[C@]21C	60.8
COc1ccccc1NC(=O)[C@H](Cc1ccccc1)NC(=O)[C@]1(C)CCC[C@]2(C)c3ccc(C(C)C)cc3C(=O)C[C@@H]12	57.5
COc1ccc(NC(=O)[C@@H](Cc2ccccc2)NC(=O)[C@]2(C)CCC[C@]3(C)c4ccc(C(C)C)cc4/C(=N\O)C[C@@H]23)cc1	56.2
COc1cc(NC(=O)[C@@H](Cc2ccccc2)NC(=O)[C@]2(C)CCC[C@]3(C)c4ccc(C(C)C)cc4C(=O)C[C@@H]23)cc(OC)c1OC	57.4
CC(C)c1ccc2c(c1)C(=O)C[C@H]1[C@](C)(C(=O)N[C@@H](Cc3ccccc3)C(=O)Nc3ccccc3F)CCC[C@]21C	47.6
CC(C)c1ccc2c(c1)C(=O)C[C@H]1[C@](C)(C(=O)N[C@H](Cc3ccccc3)C(=O)Nc3ccc(F)cc3)CCC[C@]21C	52.4
COc1ccc(NC(=O)[C@@H](Cc2ccccc2)NC(=O)[C@]2(C)CCC[C@]3(C)c4ccc(C(C)C)cc4C(=O)C[C@@H]23)cc1	55.4
COc1cc(NC(=O)[C@@H](Cc2ccccc2)NC(=O)[C@]2(C)CCC[C@]3(C)c4ccc(C(C)C)cc4/C(=N\O)C[C@@H]23)cc(OC)c1OC	56.2
COc1cc(NC(=O)[C@H](Cc2ccccc2)NC(=O)[C@]2(C)CCC[C@]3(C)c4ccc(C(C)C)cc4C(=O)C[C@@H]23)cc(OC)c1OC	69.5
CC(C)c1ccc2c(c1)/C(=N\O)C[C@H]1[C@](C)(C(=O)N[C@H](Cc3ccccc3)C(=O)Nc3ccc(Cl)cc3)CCC[C@]21C	57.9
COc1ccccc1NC(=O)[C@@H](Cc1ccccc1)NC(=O)[C@]1(C)CCC[C@]2(C)c3ccc(C(C)C)cc3C(=O)C[C@@H]12	55.7
